Data taken from BindingDB's records for doi:10.7270/Q2TX3CSC (Vanderbilt Screening Center for GPCRs, Ion Channels and …, 2009).

These molecules were tested against T1, Solute carrier family 12 member 5 (Homo sapiens, UniProt Q9H2X9) (assay: concentration-response of KCC2 transport modulators – cell-based, HEK293 KCC2, FluoZin-2 fluorescence, dose response (AID 1736)). Conditions: not given.
T1 sequence (Q9H2X9 whole entry): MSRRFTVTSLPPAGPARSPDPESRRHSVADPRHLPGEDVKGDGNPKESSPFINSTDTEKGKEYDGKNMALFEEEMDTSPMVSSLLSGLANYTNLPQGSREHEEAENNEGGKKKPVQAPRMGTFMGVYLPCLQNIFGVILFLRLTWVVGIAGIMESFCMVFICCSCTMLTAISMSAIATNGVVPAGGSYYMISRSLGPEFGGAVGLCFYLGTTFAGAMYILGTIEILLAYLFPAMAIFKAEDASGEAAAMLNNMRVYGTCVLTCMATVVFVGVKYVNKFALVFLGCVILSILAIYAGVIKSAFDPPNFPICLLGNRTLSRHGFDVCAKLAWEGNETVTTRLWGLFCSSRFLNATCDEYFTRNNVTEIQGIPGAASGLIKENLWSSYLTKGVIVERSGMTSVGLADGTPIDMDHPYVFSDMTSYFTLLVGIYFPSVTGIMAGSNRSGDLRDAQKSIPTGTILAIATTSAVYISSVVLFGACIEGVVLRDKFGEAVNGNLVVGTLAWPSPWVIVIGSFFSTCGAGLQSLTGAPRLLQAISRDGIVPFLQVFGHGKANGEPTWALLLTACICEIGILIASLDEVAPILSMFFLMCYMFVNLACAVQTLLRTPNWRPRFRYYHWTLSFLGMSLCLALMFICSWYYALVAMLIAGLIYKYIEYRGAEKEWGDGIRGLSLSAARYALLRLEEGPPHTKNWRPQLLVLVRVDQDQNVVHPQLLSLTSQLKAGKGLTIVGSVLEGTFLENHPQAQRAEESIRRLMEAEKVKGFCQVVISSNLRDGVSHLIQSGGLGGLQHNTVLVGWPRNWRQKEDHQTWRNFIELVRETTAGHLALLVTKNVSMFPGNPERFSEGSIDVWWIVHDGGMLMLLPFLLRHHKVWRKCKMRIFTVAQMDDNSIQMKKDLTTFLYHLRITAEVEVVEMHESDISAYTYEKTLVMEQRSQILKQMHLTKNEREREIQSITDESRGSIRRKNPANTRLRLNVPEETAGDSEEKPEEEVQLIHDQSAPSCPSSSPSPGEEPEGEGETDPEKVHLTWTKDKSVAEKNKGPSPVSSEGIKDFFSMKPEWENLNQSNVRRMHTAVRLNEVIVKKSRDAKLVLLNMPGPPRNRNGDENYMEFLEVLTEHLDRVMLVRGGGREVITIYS

SMILES	EC50
CCOC(=O)c1cc2c(ccn2-c2ccc(F)cc2)n1CC(=O)NC(C)(C)C [4-[2-(tert-butylamino)-2-keto-ethyl]-1-(4-fluorophenyl)pyrrolo[3,2-b]pyrrole-5-carboxylic acid ethyl ester]	51100 µM
O=C(O)c1cc([N+](=O)[O-])ccc1NCc1ccccc1 [2-(benzylamino)-5-nitro-benzoic acid]	4.19 µM
O=C(CCSCCc1ccccn1)Nc1ccc(Cc2ccncc2)cc1 [3-(2-pyridin-2-ylethylsulfanyl)-N-[4-(pyridin-4-ylmethyl)phenyl]propanamide]	9.8 µM
Cc1csc(NC(=O)CSc2ccc(-c3ccccc3)nn2)n1 [N-(4-methyl-1,3-thiazol-2-yl)-2-(6-phenylpyridazin-3-yl)sulfanyl-ethanamide]	0.249 µM
COc1cccc(CNC(=O)CSc2ccc(-c3cccs3)nn2)c1 [MLS000621194]	19.5 µM
O=C(NNc1nc(-c2ccccc2)cs1)c1ccccc1 [MLS000547345]	0.024 µM
COc1ccc(-c2nnc(S/C(=C/c3ccc(Cl)cc3)C(=O)O)o2)cc1 [(E)-3-(4-chlorophenyl)-2-[[5-(4-methoxyphenyl)-1,3,4-oxadiazol-2-yl]sulfanyl]prop-2-enoic acid]	0.287 µM
CC(=NNC(=S)Nc1c(C)cccc1C)c1cc2ccccc2o1 [SMR000260555]	4.46 µM
CCn1nnnc1SCC(=O)Nc1nc(-c2cccs2)cs1 [2-(1-Ethyl-1H-tetrazol-5-ylsulfanyl)-N-(4-thiophen-2-yl-thiazol-2-yl)-acetamide]	1.32 µM
CCOc1ccc2nc(Sc3cc(O)n(-c4cccc(OC)c4)c3O)sc2c1 [3-(6-Ethoxy-benzothiazol-2-ylsulfanyl)-1-(3-methoxy-phenyl)-pyrrolidine-2,5-dione]	244 µM
O=C(OCC(=O)N1CCN(C(=O)c2ccco2)CC1)c1sc2ccccc2c1Cl [3-chloro-1-benzothiophene-2-carboxylic acid [2-[4-[2-furanyl(oxo)methyl]-1-piperazinyl]-2-oxoethyl] ester]	0.478 µM
COc1ccccc1-n1cnc2cc(NS(=O)(=O)c3ccccc3)ccc21 [MLS000032522]	1.9 µM
N#Cc1nc(Cc2cccc3ccccc23)oc1NCCN1CCOCC1 [5-(2-Morpholin-4-yl-ethylamino)-2-naphthalen-1-ylmethyl-oxazole-4-carbonitrile]	5.4 µM
Cc1ccc(-c2noc(CN3CCN(Cc4ccccc4)CC3)n2)cc1 [1-benzyl-4-{[3-(4-methylphenyl)-1,2,4-oxadiazol-5-yl]methyl}piperazine]	6.64 µM
Cc1cccc(-c2nc(C[S+]([O-])CC(=O)N3CCc4ccccc4C3)c(C)o2)c1 (stereo not drawn) [1-(3,4-dihydro-1H-isoquinolin-2-yl)-2-[[5-methyl-2-(3-methylphenyl)-1,3-oxazol-4-yl]methylsulfinyl]ethanone]	7.28 µM
COc1ccc(NC(=S)NC(N)=Nc2nc(C)c3ccccc3n2)cc1 [(1E)-1-[amino-[(4-methyl-2-quinazolinyl)amino]methylidene]-3-(4-methoxyphenyl)thiourea]	4.61 µM
COc1cc(CC(C)N)c(OC)cc1I (stereo not drawn) [[125I]2,5-dimethoxy-4-iodoamphetamine]	290 µM
CC(C)(C)NC(=O)C(c1ccncc1)N(Cc1ccco1)C(=O)c1ccc(-c2ccccc2)[nH]1 (stereo not drawn) [N-[2-(tert-butylamino)-2-oxo-1-pyridin-4-ylethyl]-N-(furan-2-ylmethyl)-5-phenyl-1H-pyrrole-2-carboxamide]	7.02 µM

SMILES	EC50
O=C(C1CCCN(S(=O)(=O)c2cccc3nonc23)C1)N1CCC(Cc2ccccc2)CC1 (stereo not drawn) [(1-benzofurazan-4-ylsulfonyl-3-piperidyl)-(4-benzylpiperidino)methanone]	3810 µM
S=C(NN=Cc1cccc2ccccc12)Nc1cccc(Cl)c1 [1-(3-chlorophenyl)-3-(1-naphthalenylmethylideneamino)thiourea]	11 µM
Cn1c(CSc2nc3ccccc3s2)nc2ccccc21 [2-(1-Methyl-1H-benzoimidazol-2-ylmethylsulfanyl)-benzothiazole]	14.8 µM
Cc1[nH]c2ccccc2c1Cc1n[nH]c(=S)n1C	6.59 µM
CC1Cc2ccccc2N1C(=O)CSc1nnc(CNc2ccccc2)o1 (stereo not drawn) [1-(2-Methyl-2,3-dihydro-indol-1-yl)-2-(5-phenylaminomethyl-[1,3,4]oxadiazol-2-ylsulfanyl)-ethanone]	0.941 µM
O=C(COC(=O)c1cc([N+](=O)[O-])ccc1NCc1ccccc1)NC1CCCCC1 [2-(benzylamino)-5-nitro-benzoic acid [2-(cyclohexylamino)-2-keto-ethyl] ester]	0.651 µM
O=C(O)/C=C/c1cn(Cc2ccccc2Cl)nc1-c1ccccc1 [(E)-3-[1-(2-chlorobenzyl)-3-phenyl-pyrazol-4-yl]acrylic acid]	3.26 µM
O=C(CSc1ccc(-c2cccs2)nn1)Nc1ccccc1F [MLS000621184]	5.12 µM
O=C(Cn1c(-c2ccc(Cl)cc2)noc1=O)N1CCN(c2ccccc2F)CC1 [3-(4-Chloro-phenyl)-4-{2-[4-(2-fluoro-phenyl)-piperazin-1-yl]-2-oxo-ethyl}-4H-[1,2,4]oxadiazol-5-one]	228 µM
Cc1ccc(-c2csc(NC(=O)CCNC(=O)c3ccccc3Cl)n2)cc1 [2-chloranyl-N-[3-[[4-(4-methylphenyl)-1,3-thiazol-2-yl]amino]-3-oxidanylidene-propyl]benzamide]	2.49 µM
CCOc1cc(Br)ccc1S(=O)(=O)NCc1ccccc1 [4-bromanyl-2-ethoxy-N-(phenylmethyl)benzenesulfonamide]	14.7 µM
C=C(C)Cn1c(N2CCC(Cc3ccccc3)CC2)nc2c1c(=O)[nH]c(=O)n2C [3-methyl-7-(2-methylprop-2-enyl)-8-[4-(phenylmethyl)-1-piperidinyl]purine-2,6-dione]	20.4 µM
CCOc1[nH]n(-c2ccccc2)c(=O)c1C=Nc1ccc(F)cc1F [(4E)-4-[[[2,4-bis(fluoranyl)phenyl]amino]methylidene]-5-ethoxy-2-phenyl-pyrazol-3-one]	0.461 µM
Cc1cc(C(=O)COC(=O)CCc2nc3ccccc3s2)c(C)n1C [3-(1,3-benzothiazol-2-yl)propanoic acid [2-oxo-2-(1,2,5-trimethyl-3-pyrrolyl)ethyl] ester]	97.3 µM
N#Cc1ccccc1NC(=O)CSc1nccn1CCc1ccccc1 [MLS000051858]	3.24 µM
O=C(NC(=S)Nc1nc(-c2cccc([N+](=O)[O-])c2)cs1)c1ccccc1Cl [2-chloranyl-N-[[4-(3-nitrophenyl)-1,3-thiazol-2-yl]carbamothioyl]benzamide]	9.6 µM
O=C1OC(c2ccc(O)cc2)(c2ccc(O)cc2)c2ccccc21	2.31 µM
O=C(Cn1cnc2c(nnn2Cc2ccc(F)cc2)c1=O)NCc1ccc2c(c1)OCO2 [2-[3-(4-fluorobenzyl)-7-keto-triazolo[4,5-d]pyrimidin-6-yl]-N-piperonyl-acetamide]	1.69 µM

Same assay, conditions: inactive by the depositor's call

SMILES	EC50
COc1ccc(C(=O)NC(=S)N2CCN(c3ccc([N+](=O)[O-])cc3)CC2)cc1 [4-methoxy-N-[4-(4-nitrophenyl)piperazin-1-yl]carbothioyl-benzamide]	0.178 µM
O=C(NC(=S)Nc1ccc(-c2nc3ncccc3o2)cc1)c1ccccc1F [2-fluoranyl-N-[[4-([1,3]oxazolo[4,5-b]pyridin-2-yl)phenyl]carbamothioyl]benzamide]	1.8 µM
